{
  "source": "paper PMC5905120",
  "about": "“An innovative immunotherapeutic strategy for ovarian cancer: CLEC10A and glycomimetic peptides” (Journal for Immunotherapy of Cancer, 2018)",
  "key": {"[1]": {"test": "Antigenicity assay in mouse sera", "format": "in vivo", "conditions": "1 nmole/g s.c., alternate days for 3 months; sera of 8 treated mice, Fig. 8", "method": "The sequence of one arm of svL4 or sv6D was conjugated to keyhole limpet hemocyanin (KLH) and injected into rabbits at two week intervals (total of 3 injections) (New England Peptide, Inc., Gardner, MA). Two weeks after the final injection, sera were prepared. Mice were injected with a peptide every other day over a period of 3 months (total ~ 45 injections), blood was then collected by cardiac puncture and sera were prepared. Rabbit serum was diluted 1:10, whereas mouse serum was diluted 1:1 or 1:5 with PBS containing 0.05% Tween-20 (PBST). Sera were incubated in microtiter wells coated with protein A/G (Pierce) for 90 min. The wells were washed three times with PBST, and then incubated with 50 μL of 1 μM biotinylated svL4 or sv6D for 1 h. The wells were washed four times with PBST, incubated 1 h with 1 μg/mL streptavidin-peroxidase conjugate, and washed four times with PBST. Peroxidase activity was assayed as above under Binding Assays.\nFig. 8 Test for antigenicity of svL4 and sv6D. Anti-sera were generated in rabbits against KLH-conjugates of the sequences of svL4 or sv6D and diluted 1:10. Mouse sera were collected after alternate-day injections of svL4 over 3 months, diluted 1:1 with PBS and added to protein-A/G-coated wells. Biotinylated svL4 or sv6D was added to wells and bound peptide was detected with a streptavidin-peroxidase conjugate. […]"}, "[2]": {"system": "peritoneal cells of Balb/c mice", "test": "Peritoneal immune cell populations by flow cytometry, healthy Balb/c mice", "format": "in vivo, mouse (Balb/c)", "method": "(§1) Healthy C57BL/6 male mice, 10 weeks old, were injected subcutaneously with peptides on alternate days. Peritoneal cells were isolated from mice 24 h after dosing by injecting ice cold PBS (containing 3% FBS) into the peritoneal cavity, gently massaging the abdomen, and then collecting the fluid, which was transferred into K2EDTA-treated tubes for evaluation of specific biomarkers. Cells from three mice in each group were pooled, counted and divided among FACS tubes (1 × 10^6 cells per tube). Cells were washed once in PBS containing 3% FBS, then stained with 0.25 to 1 μg of fluorescently conjugated antibody per 10^6 cells in 100 μL of buffer as recommended by the manufacturer (Table 2).\n(§2) Cells were incubated with the antibodies for 30 min at 4 °C in the dark. Following staining, the cells were washed two times with PBS/3% FBS and immediately analyzed with a MACSQuant flow cytometer (Miltenyi Biotech, Inc., San Diego, CA). Compensation was performed using single stain tubes for each color present in the analysis as well as an unstained control sample. Collection of flow cytometric data and analysis with FlowJo software, version 10.0.6 (FlowJo, LLC, Ashland, OR) were performed by Biomodels LLC (Watertown, MA).\n(§3) To examine whether increases occurred in mature immune cells, peritoneal cells from Balb/c and C57BL/6 mice were analyzed by flow cytometry after cells were stained with the markers listed in Table 2. […] To explore this observation more extensively, svL4 or sv6D was injected into C57BL/6 mice on day 0, 2 or 4. Peritoneal cells were examined by flow cytometry 24 h after each injection. Shown in Fig. 5 are results expressed as cell counts for F4/80 CD11b CD86 (mature, active macrophages); CD11c (DCs); CD11c CD 86 (activated DCs); CD4 CD69 (activated T cells); CD8 CD69 (activated cytotoxic T cells); NK1.1 CD3^+ CD69 (activated NKT cells); NK1.1 CD3^− CD69 (activated NK cells); CD19 (B cells); and CD19 CD73 CD80 CD273 (memory B cells). The numbers of these mature, activated cells continued to increase with each injection."}, "[3]": {"system": "serum cytokines/chemokines (mouse L-308 membrane array)", "format": "in vivo", "conditions": "0.1 nmole/g s.c., 4 h, three animals pooled", "method": "At 4 h post dose, terminal blood was pooled from 3 animals per group and prepared for serum. Shown in Fig. S3 are the relative levels of cytokines/chemokines in sera in response to injections of 0.1 (orange bars) or 1.0 nmole/g (grey bars) svL4 as compared with animals injected with PBS (blue)."}, "[4]": {"system": "peritoneal cells of C57BL/6 mice", "test": "Peritoneal immune cell populations by flow cytometry, C57BL/6 mice", "format": "in vivo, mouse (C57BL/6)", "method": "as §1, §2, §3\nFig. 5 Expansion of peritoneal cells in C57BL/6 mice. Mice were injected subcutaneously at a dose of 1 nmole/g body weight of svL4, sv6D or svC1. Cells in each population recovered in a peritoneal lavage are expressed as cell counts (in thousands). Cells from three mice in each treatment group were pooled for analysis. The number of cells in each population was normalized to the average recovery of total cells from all groups. For each cell type, the left-hand, middle and right-hand set of bars represent samples from mice treated with svL4, sv6D or svC1, respectively. Mice were injected on days 0, 2 and 4, and cells were collected 24 h after each injection. Day 1, open bar; day 3, grey bar; day 5, black bar. Populations that express activation markers are indicated by an asterisk"}, "[5]": {"conditions": "* control value negligible or low"}},
  "note": "Bridges are numbered along the chain shown (N, C = ends). Roman numbers before positions name the chains, in order. Where no end group is shown, it is not given here.",
  "data": [
    {"substance": "I: VQATQSNQHTPRGGGSKK-NH2 / II: VQATQSNQHTPRGGGSK / III: VQATQSNQHTPRGGGS / IV: VQATQSNQHTPRGGGS (amide I:17-IV:C, I:18-II:C, II:17-III:C) [svL4]", "values": [
      {"measurement": "antibodies that bind the peptides in mouse sera", "setting": "[1]", "result": "negative"},
      {"measurement": "increases in macrophages, DCs, T cells and NK cells", "setting": "[2]; 1 nmole/g s.c., 24 h after a single injection", "result": "Several-fold increases"},
      {"measurement": "CD90.2^+ fraction of small cells", "setting": "[2]; after treatment with svL4", "result": "about 15%"},
      {"measurement": "increase in mature immune cells", "setting": "[2]; within 24 h after a single injection (data not shown)", "result": "approximately 2 fold"},
      {"measurement": "small cells (low FSc, low SSc)", "setting": "[2]; within 24 h after injection, healthy Balb/c, Fig. S1b", "result": "decreased to a minimal level"},
      {"measurement": "ratio treated/untreated serum CCL1", "setting": "[3]", "result": 2.5},
      {"measurement": "ratio treated/untreated serum IL-1α", "setting": "[3]", "result": 2.7},
      {"measurement": "ratio treated/untreated serum IL-12p70", "setting": "[3]", "result": 3.5},
      {"measurement": "ratio treated/untreated serum IL-16", "setting": "[3]", "result": 4},
      {"measurement": "ratio treated/untreated serum IL-27", "setting": "[3]", "result": 4.5},
      {"measurement": "ratio treated/untreated serum IL-28", "setting": "[3]", "result": 4.3},
      {"measurement": "ratio treated/untreated serum IL-31", "setting": "[3]", "result": 3.5},
      {"measurement": "ratio treated/untreated serum Lymphotactin", "setting": "[3]", "result": "~ 3"},
      {"measurement": "ratio treated/untreated serum MIP-2/CXCL2", "setting": "[3]", "result": "~ 6"},
      {"measurement": "ratio treated/untreated serum Pentraxin3", "setting": "[3]", "result": "~ 4"},
      {"measurement": "ratio treated/untreated serum SPARC", "setting": "[3]", "result": "~ 5"},
      {"measurement": "ratio treated/untreated serum TIMP-2", "setting": "[3]", "result": 3},
      {"measurement": "ratio treated/untreated serum TLR2", "setting": "[3]", "result": 4.2},
      {"measurement": "ratio treated/untreated serum sHVEM", "setting": "[3]", "result": "~ 2"},
      {"measurement": "ratio treated/untreated serum IFN-γ", "setting": "[3]; [5]", "result": "High^*"},
      {"measurement": "ratio treated/untreated serum Lymphotoxin-α", "setting": "[3]; [5]", "result": "12.5*"},
      {"measurement": "ratio treated/untreated serum TNFα", "setting": "[3]; [5]", "result": "45*"},
      {"measurement": "decrease of CD90.2^+ cells as small-cell population increased", "setting": "[4]; 0.05 nmole/g svL4", "result": "more than 50%"},
      {"measurement": "response of CD19^+ B cells vs. sv6D", "setting": "[4]; 1 nmole/g s.c. on days 0, 2, 4, Fig. 5", "result": "responded more strongly to svL4"},
      {"measurement": "increase in mature immune cells", "setting": "[4]; 1 nmole/g s.c., single vs. second injection, 24 h", "result": "a significant increase occurred only after the second injection"},
      {"measurement": "Lin/CD90.2 status of small cells", "setting": "[4]; 0.1 or 0.5 nmole/g svL4", "result": "nearly all cells were Lin^Neg and CD90.2^Neg"},
      {"measurement": "increase in mature immune cells", "setting": "[4]; within 24 h after an injection (data not shown)", "result": "Essentially no increase"},
      {"measurement": "small cells (low FSc, low SSc)", "setting": "[4]; within 24 h after injection, healthy C57BL/6, Fig. S1a", "result": "several-fold increase"}
    ]}
  ]
}
